Assay results published in patent US6596863B2, “Medical composition containing nitroetheneamine Derivative or salt there of as active constituent” (Ishihara Sangyo Kaisha, Ltd., priority 1998, dated 2003).
Like-named read-outs stand apart in the source and are kept apart here.

Assays:
[1] = molecular target: T1, human MMP-9 (gelatinase B) (Homo sapiens, UniProt P14780); assay: Inhibition activity against human MMP-9 (gelatinase B), fluorescent peptide substrate; format: biochemical; conditions: compounds of the formula (I)
T1 construct: endogenous in cells; host or cells: HT1080 human fibrosarcoma cells (ATCC CCL-121), PMA-stimulated; enzyme purified from the culture supernatant
T1 sequence (P14780 107-707 limits assumed): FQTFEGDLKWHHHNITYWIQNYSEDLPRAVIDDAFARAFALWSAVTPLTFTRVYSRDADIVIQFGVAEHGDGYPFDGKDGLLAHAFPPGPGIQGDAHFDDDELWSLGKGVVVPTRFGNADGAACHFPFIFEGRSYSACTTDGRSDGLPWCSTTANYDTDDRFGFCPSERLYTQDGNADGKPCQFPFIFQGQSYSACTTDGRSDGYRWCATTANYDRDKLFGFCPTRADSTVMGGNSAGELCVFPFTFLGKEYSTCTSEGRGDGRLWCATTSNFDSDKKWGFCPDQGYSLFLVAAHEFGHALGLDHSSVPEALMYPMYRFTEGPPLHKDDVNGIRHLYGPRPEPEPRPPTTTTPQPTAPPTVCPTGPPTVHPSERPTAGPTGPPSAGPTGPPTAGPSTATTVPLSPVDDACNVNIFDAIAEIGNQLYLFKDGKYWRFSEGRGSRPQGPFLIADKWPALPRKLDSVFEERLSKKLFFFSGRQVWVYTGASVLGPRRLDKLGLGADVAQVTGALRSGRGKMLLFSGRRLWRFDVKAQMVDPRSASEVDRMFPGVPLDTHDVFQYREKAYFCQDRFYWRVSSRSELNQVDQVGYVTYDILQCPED
Method: Human MMP-9 (gelatinase B) was purified by the following method from a culture supernatant of HT1080 cells (human fibrosarcoma).
2.5×10^6 HT1080 cells (ATCC CCL-121, purchased from Dainippon Seiyaku) were inoculated to a tissue culture dish (Code No. 3020-100, manufactured by Iwaki Glass Co., Ltd.) having a diameter of 10 cm and containing 10 ml of Dulbecco's Modified Eagle Medium (DME, No. D-5648, manufactured by Sigma Co.) containing 10% fetal bovine serum (FBS: REHATUIN™, Code No. 1020-90, manufactured by Intergen Co.) and cultured for 72 hours at 37° C. in an atmosphere comprising 5% of CO2 and 95% of air (Carbon Dioxide Incubator LNA-122D Model, manufactured by Tabai Co.). Then, the medium was changed to 10 ml of a DME culture medium containing no FBS, and phorbol 12-myristate 13-acetate (PMA, code No. 163-114851, manufactured by Wako Pure Chemical Industries, Ltd.) was added so that the final concentration became 10 ng/ml. Under the same conditions, the culturing was carried out for further 20 hours, whereupon the culture supernatant was collected and subjected to cool centrifugation at 4° C. for 5 minutes (cool centrifugal separator, manufactured by Hitachi) to remove cell fragments.
The pH of a conditioned medium (50 ml) containing MMP-9, thus prepared, was adjusted to 8.0 with 0.2N NaOH. […] Namely, the above-mentioned conditioned medium was passed through DEAE-Sephacel (manufactured by Pharmacia, gel volume: about 35 ml) preliminarily equilibrated with 50 mM Tris-HCl, pH 8.0 (A buffer), and a non-adsorption fraction was collected. Then, it was added to Dye Matrix Gel Green A (manufactured by Amicon Co., gel volume: about 6 ml) preliminarily equilibrated with 50 mM Tris-HCl, pH 7.5/10 MM CaCl2/0.05% Brij 35/0.02% NaN3 (B buffer) and thoroughly washed with the same buffer, whereupon the adsorbed enzyme was eluted with a 1M NaCl-containing B buffer. About 7.5 ml of the eluted fraction was diluted twice with the B buffer and added to Gelatin-Sepharose 4B (manufactured by Pharmacia, gel volume: about 6 ml) preliminarily equilibrated with a 0.5 M NaCl-containing B buffer. It was thoroughly washed with a 0.5M NaCl-containing B buffer, and eluted with the B buffer containing 10% of dimethylsulfoxide (DMSO) and 0.5 M of NaCl. 5.5 ml of the eluted fraction was dialyzed against a 0.1 M NaCl-containing B buffer to obtain 5.2 ml of a purified enzyme solution. The purified MMP-9 standard product was confirmed to have a single band of 92 kDa by a protein staining by SDS electrophoresis, and further, it was confirmed to have an adequate gelatin decomposing activity by gelatinzymography (carried out in accordance with a method by Howard E. W. et al; Journal Biological Chemistry, Vol. 266, 13064-13069, 1991) and to have an adequate substrate decomposing activity by the after-mentioned measurement employing a fluorescent peptide substrate specific to MMP.
The inhibition activity against human MMP-9 was measured by the following method in accordance with the method by C. G. Knight et al (FEBS Letters, Vol, 296, 263-266, 1992) employing a fluorescent peptide substrate (7-methoxycoumarin-4-yl)Acetyl-Pro-Leu-Gly-Leu-(3-[2,4-dinitrophenyl]—Ala—Arg-NH2, Code 3163-VC, manufactured by Peptide Institute, Inc.
Further, as the case requires, commercially available human MMP-9 purified enzyme (No. YU-18003, manufactured by Kabushiki Kaisha Yagai Chuo Kenkyusho; used in a final concentration of from 0.0125 to 0.025 unit/ml, No. CC079, manufactured by Chemicon International, Inc.; used in a final concentration of 0.2 μg/ml) was used for the tests. […]

[2] = 1st measurement, read-out: MMP-9 inhibition activities IC50, 1st
[3] = 2nd measurement, read-out: MMP-9 inhibition activities IC50, 2nd
[4] = average of 1st and 2nd (or single measurement), read-out: MMP-9 inhibition activities IC50, Average

SMILES	melting point	IC50 [1, 2]	IC50 [1, 3]	IC50 [1, 4]
CNC(=C[N+](=O)[O-])NN(C)c1ccc(C(F)(F)F)cn1 [compound 36]	153 to 154 °C	19.7 µM	24.3 µM	22 µM
CNC(=C[N+](=O)[O-])NN=C(C)c1ccncc1 [compound 38]	199 °C (dec.)	13.7 µM	19.1 µM	16.4 µM
CNC(=C[N+](=O)[O-])NN(C)c1cccc(C(F)(F)F)n1 [compound 39]	191 to 192 °C (dec.)	16.1 µM	29.2 µM	22.7 µM
CNC(=C[N+](=O)[O-])NNc1ccc(C(F)(F)F)cc1 [compound 40]	190 °C	13.5 µM	28.7 µM	21.1 µM
COc1ccc(NC(=C[N+](=O)[O-])NNc2ccc(C(F)(F)F)cn2)cc1 [compound 41]	155 to 157 °C	15.1 µM	13.7 µM	14.4 µM
CNC(=C[N+](=O)[O-])NNc1cccc(C(=O)O)c1 [compound 42]	250 °C	41.4 µM	40.7 µM	41.4 µM
CNC(=C[N+](=O)[O-])NNc1cc(C(F)(F)F)cc(C(F)(F)F)n1 [compound 44]	192 to 193 °C (dec.)	19.6 µM	26.8 µM	23.2 µM
CNC(=C[N+](=O)[O-])NNc1ncccn1 [compound 45]	182 to 183 °C (dec.)	33.8 µM	26.3 µM	30.1 µM
Cc1ccc(NC(=C[N+](=O)[O-])NN)cc1 [compound 48]	191 °C (dec.)	20.6 µM	18.2 µM	19.4 µM
COc1ccc(NC(=C[N+](=O)[O-])NN)cc1 [compound 49]	195 °C (dec.)	15.6 µM	18 µM	16.8 µM
NNC(=C[N+](=O)[O-])Nc1cccnc1 [compound 50]	175 °C (dec.)	25.7 µM	23 µM	24.3 µM
COc1cccc(NC(=C[N+](=O)[O-])NN)c1 [compound 52]	144 °C	21.6 µM	30.2 µM	25.9 µM
NNC(=C[N+](=O)[O-])Nc1ccc(F)cc1 [compound 53]	183.5 °C (dec.)	22.6 µM	29.3 µM	26 µM
NNC(=C[N+](=O)[O-])NCc1ccncc1 [compound 55]	176 °C (dec.)	25.3 µM	30 µM	27.7 µM
COc1ccc(NC(=C[N+](=O)[O-])NN)cc1OC [compound 56]	148 °C	39.9 µM	33.5 µM	36.7 µM
COc1ccccc1NC(=C[N+](=O)[O-])NN [compound 57]	135.5 to 136 °C	38.7 µM	35.1 µM	36.6 µM
NNC(=C[N+](=O)[O-])NN1CCOCC1 [compound 67]	187 °C (dec.)	56.9 µM	43.1 µM	50 µM
CCOc1ccc(NC(=C[N+](=O)[O-])NN)cc1 [compound 70]	198 °C (dec.)	42.1 µM	57.1 µM	49.6 µM
CCCOc1ccc(NC(=C[N+](=O)[O-])NN)cc1 [compound 71]	179 °C (dec.)	42.9 µM	37.4 µM	40.2 µM

Next, values leading:

melting point	IC50 [1, 2]	IC50 [1, 3]	IC50 [1, 4]	SMILES
177 °C (dec.)	40.8 µM	41.5 µM	41.2 µM	CSc1ccc(NC(=C[N+](=O)[O-])NN)cc1 [compound 72]
68 to 70 °C	44.6 µM	47.9 µM	46.3 µM	CCOC(=O)Cc1ccc(NC(=C[N+](=O)[O-])NN)cc1 [compound 73]
155 °C (dec.)	49.6 µM	49.4 µM	49.5 µM	CCOC(=O)c1ccc(NC(=C[N+](=O)[O-])NN)cc1 [compound 74]
190 °C (dec.)	34 µM	33.8 µM	33.9 µM	NNC(=C[N+](=O)[O-])Nc1ccc(O)cc1 [compound 76]
155 °C	41.4 µM	35.2 µM	38.3 µM	NNC(=C[N+](=O)[O-])NCc1cccc(C(F)(F)F)c1 [compound 77]
162 °C	44.1 µM	36 µM	40.1 µM	NNC(=C[N+](=O)[O-])NCc1ccc(C(F)(F)F)cc1 [compound 78]
190 °C (dec.)	39 µM	36.6 µM	37.8 µM	NNC(=C[N+](=O)[O-])NCc1ccccn1 [compound 79]
196 °C (dec.)	41.8 µM	41.5 µM	41.7 µM	NNC(=C[N+](=O)[O-])NC1CCCCC1 [compound 86]
153 °C (dec.)	20.5 µM	25.3 µM	22.9 µM	NNC(=C[N+](=O)[O-])Nc1ccccc1 [compound 87]
145 °C (dec.)	18.7 µM	37.4 µM	28 µM	NNC(=C[N+](=O)[O-])NC1CC1 [compound 90]
192 °C (dec.)	20 µM	35.7 µM	27.9 µM	NNC(=C[N+](=O)[O-])NC1CCCC1 [compound 91]
140 to 143 °C	15.4 µM	20.6 µM	18 µM	NNC(=C[N+](=O)[O-])NCc1ccccc1 [compound 92]
174 to 175 °C (dec.)	4.2 µM	7 µM	5.6 µM	CNC(=C[N+](=O)[O-])NNc1cc(C(F)(F)F)ccn1 [compound 94]
176 to 177 °C (dec.)	26.7 µM	27 µM	26.9 µM	CNC(=C[N+](=O)[O-])NNc1ccc(OC(F)(F)F)cc1 [compound 95]
165 to 167 °C (dec.)	24.5 µM	21.3 µM	22.9 µM	CNC(=C[N+](=O)[O-])NNc1ncc(C(F)(F)F)cc1[N+](=O)[O-] [compound 96]
180 to 181 °C (dec.)	20.5 µM	30 µM	25.3 µM	CNC(=C[N+](=O)[O-])NNc1cc(C(F)(F)F)nc(C(F)(F)F)c1 [compound 99]
160 to 162 °C (dec.)	37.8 µM	18.5 µM	28.2 µM	CNC(=C[N+](=O)[O-])NNc1cc(OC)nc(OC)n1 [compound 101]
206 °C (dec.)	18.2 µM	14 µM	16.1 µM	CCNC(=C[N+](=O)[O-])NNc1cc(C(F)(F)F)cc(Cl)n1 [compound 102]
201 to 202 °C (dec.)	8.9 µM	10.7 µM	9.8 µM	NC(=C[N+](=O)[O-])NNc1cc(C(F)(F)F)cc(Cl)n1 [compound 103]
